# According to patent US8916702B2 (priority 2012, dated 2014):
# pEC50: −log10 of the molar value.
# Test system: HCV pseudoparticles (genotype 1a HCV E1 and E2 envelope, H77C isolate)
# Experiment: microbe, parasite or virus in culture
# Format: cell-based
# Details: Hepatitis C virus, GETYPE1A, Huh-7, 48 h, read-out: Activity (EC50 class), HCV pseudoparticle infection of Huh7 cells, luciferase 2 days after infection; EC50 expressed as class A/B
row,Structure (SMILES),pEC50
1,CC(C)(CNC(=O)C(=O)NCC1CC1)CNC(=O)c1ccc(Nc2nc(NC3(c4ccc(Cl)cc4)CC3)nc(OCC(F)(F)F)n2)cc1 [Compound 1032],8.00 to 11.00

# Same assay, conditions: Hepatitis C virus, Huh-7, 48 h, HCV pseudoparticle infection of Huh7 cells, luciferase 2 days after infection; average of duplicates
row,Structure (SMILES),pEC50
1,COC(=O)[C@H](CNC(=O)C(=O)Nc1ccccc1OC)NC(=O)c1ccc(Nc2nc(NC3(c4ccc(Cl)cc4)CC3)nc(OCC(F)(F)F)n2)cc1 [Compound 1256],9.19
2,O=C(NCC[C@H](NC(=O)c1ccc(Nc2nc(NC3(c4ccc(Cl)cc4)CC3)nc(OCC(F)(F)F)n2)cc1)C(=O)O)C(=O)NCC1(C(=O)O)CC1 [Compound 1447],7.01

# Same assay, conditions: Hepatitis C virus, Huh-7, 48 h, HCV pseudoparticles (genotype 1a, H77C) in Huh7 cells; average of duplicate; luciferase 2 days after infection
row,Structure (SMILES),pEC50
1,Cc1cc(C)nc(N(C)c2ccc(NC(=O)C(=O)NCC[C@H](NC(=O)c3ccc(Nc4nc(NC5(c6ccc(Cl)cc6)CC5)nc(OCC(F)(F)F)n4)cc3)C(=O)O)cc2)n1 [Compound 3234],9.62
2,NC(=O)NCc1ccc(NC(=O)C(=O)NC[C@H](NC(=O)c2ccc(Nc3nc(NC4(c5ccc(Cl)cc5)CC4)nc(OCC(F)(F)F)n3)cc2)C(=O)O)cc1 [Compound 3281],8.89

# Same assay, conditions: Hepatitis C virus, Huh-7, 48 h, read-out: Activity (EC50 class), HCV pseudoparticle infection of Huh7 cells, luciferase 2 days after infection; EC50 expressed as class A/B
row,Structure (SMILES),pEC50
1,"NC(=O)C(=O)NCCC(NC(=O)c1ccc(Nc2nc(NC3(c4ccc(Cl)cc4)CC3)nc(OCC(F)(F)F)n2)cc1)C(=O)O (stereo in doubt) [Compound 1013, (S)-4-(2-amino-2-oxoacetamido)-2-(4-(4-(1-(4-chlorophenyl)cyclopropylamino)-6-(2,2,2-trifluoroethoxy)-1,3,5-triazin-2-ylamino)benzamido)butanoic acid]",8.00 to 11.00
2,O=C(NC[C@H](NC(=O)c1ccc(Nc2nc(NC3(c4ccc(Cl)cc4)CC3)nc(OCC(F)(F)F)n2)cc1)C(=O)O)C(=O)N[C@@H]1C[C@@H]2CC[C@H]1C2 [Compound 1080],8.00 to 11.00
3,O=C(NCC[C@H](NC(=O)c1ccc(Nc2nc(NC3(c4ccc(Cl)cc4)CC3)nc(OCC(F)(F)F)n2)cc1)C(=O)O)C(=O)NCC1CCCCC1 [Compound 1181],8.00 to 11.00
4,Cn1cc(CCNC(=O)C(=O)NC[C@@H](NC(=O)c2ccc(Nc3nc(NC4(c5ccc(Cl)cc5)CC4)nc(OCC(F)(F)F)n3)cc2)C(=O)O)cn1 [Compound 1413],8.00 to 11.00
5,O=C(NCC[C@H](NC(=O)c1ccc(Nc2nc(NC3(c4ccc(Cl)cc4)CC3)nc(OCC(F)(F)F)n2)cc1)C(=O)O)C(=O)NCc1cccc(F)c1F [Compound 1177],8.00 to 11.00
6,COC(=O)[C@H](CCNC(=O)C(=O)N[C@H]1C[C@@H]2C[C@@H]([C@@H]1C)C2(C)C)NC(=O)c1ccc(Nc2nc(NC3(c4ccc(Cl)cc4)CC3)nc(OCC(F)(F)F)n2)cc1 [Compound 1110],8.00 to 11.00
7,COC(=O)[C@H](CNC(=O)C(=O)NCc1ccc(OC)c(OC)c1)NC(=O)c1ccc(Nc2nc(NC3(c4ccc(Cl)cc4)CC3)nc(OCC(F)(F)F)n2)cc1 [Compound 1152],8.00 to 11.00
8,O=C(NCC[C@H](NC(=O)c1ccc(Nc2nc(NC3(c4ccc(Cl)cc4)CC3)nc(OCC(F)(F)F)n2)cc1)C(=O)O)C(=O)NCC1(CN2CCCN2)CC1 [Compound 1443],8.00 to 11.00
9,COC(=O)[C@H](CNC(=O)C(=O)Nc1ccccc1OC)NC(=O)c1ccc(Nc2nc(NC3(c4ccc(Cl)cc4)CC3)nc(OCC(F)(F)F)n2)cc1 [Compound 1256],8.00 to 11.00
10,O=C(NCC[C@H](NC(=O)c1ccc(Nc2nc(NC3(c4ccc(Cl)cc4)CC3)nc(OCC(F)(F)F)n2)cc1)C(=O)O)C(=O)NCC1(C(=O)O)CC1 [Compound 1447],6.00 to 8.00
11,Cc1ccc(C2CC2CNC(=O)C(=O)NCC[C@H](NC(=O)c2ccc(Nc3nc(NC4(c5ccc(Cl)cc5)CC4)nc(OCC(F)(F)F)n3)cc2)C(=O)O)cc1 (some centres unmarked) [Compound 1444],8.00 to 11.00
12,COC(=O)[C@H](CNC(=O)C(=O)N[C@H]1C[C@H](C)CC[C@H]1C(C)C)NC(=O)c1ccc(Nc2nc(NC3(c4ccc(Cl)cc4)CC3)nc(OCC(F)(F)F)n2)cc1 [Compound 1067],8.00 to 11.00
13,COc1ncccc1NC(=O)C(=O)NC[C@H](NC(=O)c1ccc(Nc2nc(NC3(c4ccc(Cl)cc4)CC3)nc(OCC(F)(F)F)n2)cc1)C(=O)O [Compound 1347],8.00 to 11.00
14,O=C(NCC1CC1)C(=O)NC[C@H](NC(=O)c1ccc(Nc2nc(NC3(c4ccc(Cl)cc4)CC3)nc(OCC(F)(F)F)n2)cc1)C(=O)O [Compound 1467],8.00 to 11.00
15,COCCNC(=O)C(=O)NC[C@H](NC(=O)c1ccc(Nc2nc(NC3(c4ccc(Cl)cc4)CC3)nc(OCC(F)(F)F)n2)cc1)C(=O)O [Compound 1046],8.00 to 11.00

# Same assay, conditions: Hepatitis C virus, Huh-7, 48 h, read-out: Activity (EC50 class), HCV pseudoparticles, Huh7 cells, luciferase 2 days after infection; average of duplicates
row,Structure (SMILES),pEC50
1,Cc1nc(-c2cccc(NC(=O)C(=O)NCC[C@H](NC(=O)c3ccc(Nc4nc(NC5(c6ccc(Cl)cc6)CC5)nc(OCC(F)(F)F)n4)cc3)C(=O)O)c2)cs1 [Compound 3642],8.00 to 11.00
2,N#Cc1cccc(NC(=O)C(=O)NC[C@H](NC(=O)c2ccc(Nc3nc(NC4(c5ccc(Cl)cc5)CC4)nc(OCC(F)(F)F)n3)cc2)C(=O)Cl)c1 [Compound 3740],8.00 to 11.00
3,COC(=O)[C@H](CNC(=O)C(=O)Nc1cccc(-c2ccccc2)c1)NC(=O)c1ccc(Nc2nc(NC3(c4ccc(Cl)cc4)CC3)nc(OCC(F)(F)F)n2)cc1 [Compound 3695],8.00 to 11.00
4,COc1ccc(CN(CC(C)(O)CNC(=O)c2ccc(Nc3nc(NC4(c5ccc(Cl)cc5)CC4)nc(OCC(F)(F)F)n3)cc2)C(=O)C(=O)Nc2ccc(C)cc2)c(OC)c1 (centres unmarked) [Compound 3833],8.00 to 11.00
5,COC(=O)[C@H](CNC(=O)C(=O)Nc1ccc(C)nc1)NC(=O)c1ccc(Nc2nc(NC3(c4ccc(Cl)cc4)CC3)nc(OCC(F)(F)F)n2)cc1 [Compound 3711],8.00 to 11.00
6,CC(C)(C)c1cccc(NC(=O)C(=O)NCC[C@H](NC(=O)c2ccc(Nc3nc(NC4(c5ccc(Cl)cc5)CC4)nc(OCC(F)(F)F)n3)cc2)C(=O)O)c1 [Compound 3629],8.00 to 11.00

# Same assay, conditions: Hepatitis C virus, Huh-7, read-out: Activity (EC50 class), HCV pseudoparticles (genotype 1a, H77C) in Huh7 cells; EC50 expressed as class A/B
row,Structure (SMILES),pEC50
1,CC(C)(CNC(=O)C(=O)Nc1ccc(F)c(F)c1F)CNC(=O)c1ccc(Nc2nc(NC3(c4ccc(Cl)cc4)CC3)nc(OCC(F)(F)F)n2)cc1 [Compound 3262],8.00 to 11.00
2,O=C(CNC(=O)C(=O)Nc1cccc(F)c1)CNC(=O)c1ccc(Nc2nc(NC3(c4ccc(Cl)cc4)CC3)nc(OCC(F)(F)F)n2)cc1 [Compound 3363],8.00 to 11.00
3,O=C(NC/C(=N/C(=O)c1ccc(Nc2nc(NC3(c4ccc(Cl)cc4)CC3)nc(OCC(F)(F)F)n2)cc1)C(=O)O)C(=O)Nc1ccc(-c2ccccc2)cc1 [Compound 3151],8.00 to 11.00
4,CC(C)(CNC(=O)C(=O)Nc1ccc(/C=C/c2ccccc2)cc1)CNC(=O)c1ccc(Nc2nc(NC3(c4ccc(Cl)cc4)CC3)nc(OCC(F)(F)F)n2)cc1F [Compound 3564],8.00 to 11.00
5,COC(=O)[C@H](CCNC(=O)C(=O)Nc1ccc(Oc2ccc(F)cc2)cc1)NC(=O)c1ccc(Nc2nc(NC3(c4ccc(Cl)cc4)CC3)nc(OCC(F)(F)F)n2)cc1 [Compound 3301],8.00 to 11.00
6,COC(=O)[C@H](CNC(=O)C(=O)Nc1ccc(N2CCCC2=O)cc1)NC(=O)c1ccc(Nc2nc(NC3(c4ccc(Cl)cc4)CC3)nc(OCC(F)(F)F)n2)cc1 [Compound 3097],8.00 to 11.00
7,Cc1ccc(NC(=O)C(=O)NCC(C)CNC(=O)c2ccc(Nc3nc(NC4(c5ccc(Cl)cc5)CC4)nc(OCC(F)(F)F)n3)cc2)cc1Cl (centres unmarked) [Compound 3474],8.00 to 11.00
8,CC(=O)N1CCN(c2ccc(NC(=O)C(=O)NCCC(NC(=O)c3ccc(Nc4nc(NC5(c6ccc(Cl)cc6)CC5)nc(OCC(F)(F)F)n4)cc3)C(=O)O)cc2)CC1 (centres unmarked) [Compound 3524],8.00 to 11.00
9,COC(=O)/C(CCNC(=O)C(=O)Nc1ccc(-n2cccn2)cc1)=N\C(=O)c1ccc(Nc2nc(NC3(c4ccc(Cl)cc4)CC3)nc(OCC(F)(F)F)n2)cc1 [Compound 3136],8.00 to 11.00
10,COC(=O)[C@H](CNC(=O)C(=O)Nc1ccc(N2CC(C)NC(C)C2)cc1)NC(=O)c1ccc(Nc2nc(NC3(c4ccc(Cl)cc4)CC3)nc(OCC(F)(F)F)n2)cc1 (some centres unmarked) [Compound 3092],8.00 to 11.00
11,COC(=O)[C@H](CNC(=O)C(=O)Nc1ccc(-n2cncn2)cc1)NC(=O)c1ccc(Nc2nc(NC3(c4ccc(Cl)cc4)CC3)nc(OCC(F)(F)F)n2)cc1 [Compound 3101],8.00 to 11.00
12,Cc1cc(C)nc(N(C)c2ccc(NC(=O)C(=O)NCC[C@H](NC(=O)c3ccc(Nc4nc(NC5(c6ccc(Cl)cc6)CC5)nc(OCC(F)(F)F)n4)cc3)C(=O)O)cc2)n1 [Compound 3234],8.00 to 11.00
13,NC(=O)NCc1ccc(NC(=O)C(=O)NC[C@H](NC(=O)c2ccc(Nc3nc(NC4(c5ccc(Cl)cc5)CC4)nc(OCC(F)(F)F)n3)cc2)C(=O)O)cc1 [Compound 3281],8.00 to 11.00
14,COc1ccc(C2(Nc3nc(Nc4ccc(C(=O)NCC(C)(C)CNC(=O)C(N)=O)cc4)nc(OCC(F)(F)F)n3)CC2)cc1Cl [Compound 3333],8.00 to 11.00
15,CC(C)(CNC(=O)C(=O)Nc1cccc2c1Cc1ccccc1-2)CNC(=O)c1ccc(Nc2nc(NC3(c4ccc(Cl)cc4)CC3)nc(OCC(F)(F)F)n2)cc1 [Compound 3356],8.00 to 11.00
16,O=C(NC[C@H](NC(=O)c1ccc(Nc2nc(NC3(c4ccc(Cl)cc4)CC3)nc(OCC(F)(F)F)n2)cc1)C(=O)O)C(=O)Nc1ccc(OC2CCOCC2)cc1 [Compound 3291],8.00 to 11.00
17,CC(C)(CNC(=O)C(=O)Nc1cn[nH]c1)CNC(=O)c1ccc(Nc2nc(NC3(c4ccc(Cl)cc4)CC3)nc(OCC(F)(F)F)n2)cc1 [Compound 3033],8.00 to 11.00
18,CC(C)(CNC(=O)C(=O)Nc1cccc2ccccc12)CNC(=O)c1ccc(Nc2nc(NC3(c4ccc(Cl)cc4)CC3)nc(OCC(F)(F)F)n2)cc1 [Compound 3030],8.00 to 11.00
19,CC(C)(CNC(=O)C(=O)Nc1ccc2nccnc2c1)CNC(=O)c1ccc(Nc2nc(NC3(c4ccc(Cl)cc4)CC3)nc(OCC(F)(F)F)n2)cc1 [Compound 3026],8.00 to 11.00
20,CN(CCCNC(=O)c1ccc(Nc2nc(NC3(c4ccc(Cl)cc4)CC3)nc(OCC(F)(F)F)n2)cc1)C(=O)C(=O)Nc1cccc(F)c1 [Compound 3443],8.00 to 11.00
21,CC(C)(CNC(=O)C(=O)Nc1ccon1)CNC(=O)c1ccc(Nc2nc(NC3(c4ccc(Cl)cc4)CC3)nc(OCC(F)(F)F)n2)cc1 [Compound 3040],8.00 to 11.00
22,O=C(NCCCNC(=O)c1ccc(Nc2nc(NC3(c4ccc(Cl)cc4)CC3)nc(OCC(F)(F)F)n2)cc1)C(=O)NCc1ccc(F)cc1 [Compound 3357],8.00 to 11.00
23,CN(CCCN(C)C(=O)c1ccc(Nc2nc(NC3(c4ccc(Cl)cc4)CC3)nc(OCC(F)(F)F)n2)cc1)C(=O)C(=O)Nc1ccc(F)cc1 [Compound 3412],8.00 to 11.00
24,CC(CNC(=O)C(=O)Nc1nccs1)CNC(=O)c1ccc(Nc2nc(NC3(c4ccc(Cl)cc4)CC3)nc(OCC(F)(F)F)n2)cc1 (centres unmarked) [Compound 3468],8.00 to 11.00
